Reference: patent publication US11433053B2, “LSD1 inhibitor and preparation method and application thereof” (CSPC ZHONGQI PHARMACEUTICAL TECHNOLOGY (SHIJIAZHUANG) CO., …, priority 2017, dated 2022)

Tests used:
human LSD1 = human LSD1 (Homo sapiens (Human), UniProt O60341); test: Evaluation of enzyme activity: LSD1 fluorescence coupling enzyme assay (HRP/Amplex Red); assay type: biochemical; details: human LSD1, histone H3(1-21)K4me2 peptide 10 μM, 30 min pre-incubation
Summary of the method: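 Human LSD1 preincubated 30 min with compound, then reacted with H3(1-21)K4me2 peptide (10 μM). FAD-dependent H2O2 detected via HRP/Amplex Red fluorescence (Ex/Em 535/590). Ten-dose, 3-fold dilutions in duplicate from 10 μM gave IC50s, binned into activity classes.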

H1417 cells = test: Cell proliferation inhibitory activity on H1417 cells (CellTiter-Glo, 10 days); assay type: cell-based, human; details: for IC50: 10 days incubation; for Emax: NCI-H1417, H1417 cells, read-out: Maximum inhibition percentage (%)
Summary of the method: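 H1417 cells in RPMI 1640 with fetal bovine serum were treated with 10-point 3-fold compound dilutions for 10 days. Viability was read by CellTiter-Glo luminescence. IC50 came from a four-parameter fit of percent inhibition, and maximal inhibition was also categorized.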

hERG potassium channel = hERG potassium channel (Homo sapiens (Human), UniProt Q12809); test: Assay on inhibiting hERG potassium channel (automatic patch clamp, CHO-hERG cells); assay type: cell-based; details: Qpatch, max test concentration 40 μM
Chain of hERG potassium channel (Q12809 whole entry): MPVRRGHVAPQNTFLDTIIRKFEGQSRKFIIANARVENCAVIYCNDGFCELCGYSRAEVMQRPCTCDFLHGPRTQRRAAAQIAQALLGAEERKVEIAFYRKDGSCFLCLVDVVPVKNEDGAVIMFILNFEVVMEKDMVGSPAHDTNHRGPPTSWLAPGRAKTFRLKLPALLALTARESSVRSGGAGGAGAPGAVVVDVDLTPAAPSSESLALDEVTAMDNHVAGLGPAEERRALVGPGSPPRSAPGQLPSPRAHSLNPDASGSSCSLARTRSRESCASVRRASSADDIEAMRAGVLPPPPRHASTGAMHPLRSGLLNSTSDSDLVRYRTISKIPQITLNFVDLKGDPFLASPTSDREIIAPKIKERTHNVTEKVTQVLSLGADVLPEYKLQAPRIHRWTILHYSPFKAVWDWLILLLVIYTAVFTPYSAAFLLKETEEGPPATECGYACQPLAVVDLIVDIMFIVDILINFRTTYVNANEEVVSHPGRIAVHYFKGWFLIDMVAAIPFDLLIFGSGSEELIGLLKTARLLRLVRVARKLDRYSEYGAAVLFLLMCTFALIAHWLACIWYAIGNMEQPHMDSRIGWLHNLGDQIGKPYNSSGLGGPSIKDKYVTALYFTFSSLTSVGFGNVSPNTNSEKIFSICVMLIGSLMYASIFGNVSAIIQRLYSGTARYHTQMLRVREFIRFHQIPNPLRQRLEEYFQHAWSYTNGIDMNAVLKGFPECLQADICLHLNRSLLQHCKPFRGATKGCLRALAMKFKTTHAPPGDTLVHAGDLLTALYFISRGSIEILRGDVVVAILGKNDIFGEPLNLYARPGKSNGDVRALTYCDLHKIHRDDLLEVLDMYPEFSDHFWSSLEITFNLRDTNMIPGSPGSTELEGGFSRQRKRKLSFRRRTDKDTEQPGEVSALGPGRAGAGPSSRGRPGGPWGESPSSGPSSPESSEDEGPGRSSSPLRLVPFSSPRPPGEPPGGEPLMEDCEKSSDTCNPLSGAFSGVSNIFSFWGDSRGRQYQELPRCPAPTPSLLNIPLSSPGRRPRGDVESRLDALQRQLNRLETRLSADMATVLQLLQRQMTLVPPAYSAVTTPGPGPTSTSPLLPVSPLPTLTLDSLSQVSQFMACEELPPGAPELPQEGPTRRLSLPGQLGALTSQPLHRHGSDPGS
Method: Experimental purpose: Using automatic patch clamp method to detect the effect of the sample to be tested on hERG potassium channel.
4.1.1 CHO-hERG cells were cultured in 175 cm^2 flasks. When the cell density was increased to 60-80%, the culture solution was removed and the resultant was washed with 7 mL PBS (Phosphate Buffered Saline phosphate buffer), then 3 mL of digestive juice was added to digest.
4.1.2 After the digestion finished, 7 mL culture solution was added to neutralize. Then centrifuge, aspirate the supernatant, and then resuspend by adding 5 mL culture solution to ensure a cell density of 2-5×10^6/mL.
Single cell high impedance sealing and whole cell pattern formation were all done automatically by the Qpatch instrument. After the whole-cell recording mode was obtained, the cells were clamped at −80 mV. 50-Millisecond−50 mV preamplifier was applied prior to a 5 second+40 mV depolarization stimulus. Then the voltage was repolarized to −50 mV for 5 seconds and back to −80 mV. This voltage stimulation was applied every 15 seconds, and the extracellular fluid was recorded over 5 minutes after 2 minutes' record, and then the administration process was started. The compound concentration was started from the lowest test concentration, and each test concentration was given for 2.5 minutes. Test at least 3 cells (n≥3) for each concentration.
4.4.1 Dilute 20 mM mother liquor of the compound with extracellular fluid 5 μL of 20 mM mother liquor of the compound was added to 2495 μL extracellular fluid, and the mixture was 500-fold diluted to 40 μM. Then 0.2% DMSO in extracellular fluid was 3-fold diluted sequentially to obtain the final concentration to be tested.
4.4.2 The max test concentration was 40 μM, 6 concentrations were 40, 13.33, 4.44, 1.48, 0.49, and 0.16 μM respectively.
Experimental data was analyzed by XLFit software.

[1] = system: human small cell lung cancer NCI-H1417 cells subcutaneous xenograft tumor; test: In vivo pharmacodynamic study, NCI-H1417 subcutaneous xenograft tumor CB-17 SCID mouse model; parameters: species or system CB-17 SCID mice
Method: The purpose of this experiment was to investigate the efficacy of some of the compounds of the present invention in the in vivo xenograft tumor of human small cell lung cancer NCI-H1417 cells in a CB-17 SCID mouse model.
Week age and weight: 6-8 weeks old, weight 18-23 g
Human small cell lung cancer NCI-H1417 cells were cultured in vitro in a single layer cultured in RPMI-1640 medium (Sigma-aldrich, R0883), supplemented with 10% fetal bovine serum and cultured at 37° C. 5% CO2. When the cell saturation is 80%-90%. The cells are harvested, counted, and inoculated.
0.2 mL of 10×10^6 (NCI-H1417 cells were subcutaneously inoculated into the right back of each mouse (PBS:Matrigel=1:1). After 21 days of tumor inoculation, group administration was started when the average volume reached 107 mm^3.
The experimental solvent was the 10% hydroxypropyl-β-cyclodextrin solution. The preparation method was as follows: 100 g of hydroxypropyl-β-cyclodextrin was weighed into a 1000 mL jar, 800 mL of ultrapure water was added, stirred overnight until completely dissolved, and then made up to 1000 mL. The test substance was dissolved in a solvent, and was prepared into a uniform solution of a certain concentration and stored at 4° C.
The experimental indicator is to investigate whether tumor growth is inhibited, delayed or cured. Tumor diameters were measured twice a week using vernier calipers. The tumor volume is calculated as: V=0.5a×b^2, and a and b represent the long and short diameters of the tumor, respectively.
The antitumor effect of the compound was evaluated by TG (%). TGI (%), reflecting the tumor growth inhibition rate. TGI (%) calculation: TGI (%)=[1−(the average tumor volume at the end of a treatment group−the average tumor volume at the beginning of the treatment group)/(the average tumor volume at the end of the treatment of the solvent control group−The average tumor volume at the start of treatment in the solvent control group) was ×100%. Solvent control: Vehicle (10% hydroxypropyl-β-cyclodextrin solution).

[2] = Pharmacokinetic evaluation in C57BL/6 mice after intravenous and oral administration; assay type: in vivo; details: male, mouse, plasma
Method: Experimental purposes: To test the pharmacokinetics of compounds in C57BL/6 mice
C57BL/6 mice (male, 7-9 weeks old, Shanghai Slack)
Test the pharmacokinetics characteristics of rodents after intravenous and oral administration in accordance with standard protocols, and the candidate compound was formulated into a clear solution in the experiment. The mice were administered by intravenous injection and orally once. The intravenous and oral vehicle is a 10% aqueous solution of hydroxypropyl β-cyclodextrin or a physiological saline solution. Six male C57BL/6 mice were employed in this assay, three of them were administered intravenously at a dose of 1 mg/kg, plasma samples were collected at 0 h (before administration) and 0.0833, 0.25, 0.5, 1, 2, 4, 7, 24 h after administration. Another three mice were administered by oral gavage at a dose of 2 mg/kg, plasma samples were collected at 0 h (before administration) and 0.5, 1, 2, 3, 4, 6, 24 h after administration. Collect whole blood samples within 24 hours, centrifuge at 3000 g for 15 minutes, separate the supernatant to obtain a plasma sample, 4 times volume of the internal standard acetonitrile solution was added to precipitate the protein. Centrifuge the supernatant and add an equal volume of water and centrifuge to take the supernatant. LC-MS/MS was used to quantitatively analyze plasma concentrations and calculate pharmacokinetic parameters such as max concentration (Cmax), clearance (CL), half-life (T1/2), volumes of distribution (Vdss), the area under the plasma concentration-time curve (AUC0-last), bioavailability (F), etc.

[3] = Homo sapiens, NCI-H1417, 240 h, H1417 cells
[4] = Homo sapiens, highest percentage inhibition of cell viability
[5] = 5 mg/kg, PO, QD, day 34 after administration
[6] = 1 mg/kg, ip, BIW, day 28 after administration
[7] = 1 mg/kg, ip, BIW, day 34 after administration
[8] = 1.5 mg/kg, PO, QD, day 27 after administration
[9] = 2.5 mg/kg, PO, BID, day 34 after administration

| SMILES | IC50 (human LSD1) | IC50 (H1417 cells; [3]) | Emax (H1417 cells; [4]) | IC50 (hERG potassium channel) | TGI (%) [1, 5] | Tumor volume (mm^3) (Day 34) [1, 5] | TGI (%) [1, 8] | Tumor volume (mm^3) (Day 27) [1, 8] | also measured |
| --- | --- | --- | --- | --- | --- | --- | --- | --- | --- |
| N[C@H]1C[C@H](c2nc(C3(CN[C@@H]4C[C@H]4c4ccccc4)CC3)no2)C1 [Example 146] | ≤ 50 nM | 500 to 1000 nM | 90 to 100% | > 40000 nM | – | – | – | – | – |
| N[C@H]1CC[C@H](c2nc(C3(CN[C@H]4CC4c4ccccc4)CC3)no2)CC1 (stereo partly shown) [Example 142] | ≤ 50 nM | 500 to 1000 nM | 70 to 90% | – | 94.9% | 136 ± 21 mm^3 | – | – | – |
| N[C@H]1CC[C@H](c2nc(C3(CN[C@H]4C[C@@H]4c4ccccc4)CC3)no2)CC1 [Example 143] | 50 to 100 nM | – | – | – | 93.3% | 145 ± 29 mm^3 | – | – | IC50 (H1417 cells; H1417 cells): 500 to 1000 nM; Maximum inhibition percentage (%) (H1417 cells; H1417 cells, highest percentage inhibition of cell viability): C (70%>C≥50%) |
| N.N.[Cl][Pt][Cl] [Cisplatin] | – | – | – | – | – | – | – | – | TGI (%) [1, 6]: 90%; Tumor volume (mm^3) (Day 28) [1, 6]: 150 ± 9 mm^3; TGI (%) [1, 7]: 61.2%; Tumor volume (mm^3) (Day 34) [1, 7]: 328 ± 37 mm^3 |
| CN[C@H]1CC[C@H](c2nc(C3(CN[C@@H]4C[C@H]4c4ccccc4)CC3)no2)CC1 [Example 232] | 50 to 100 nM | 500 to 1000 nM | 70 to 90% | > 40000 nM | – | – | 51.1% | 313 ± 28 mm^3 | – |
| NC1CC2(C1)CC(c1nc(C3(CN[C@@H]4C[C@H]4c4ccccc4)CC3)no1)C2 (stereo partly shown) [Example 151] | ≤ 50 nM | 100 to 500 nM | 90 to 100% | – | – | – | 66.3% | 250 ± 50 mm^3 | – |
| NC12CCC(c3nc(C4(CN[C@@H]5C[C@H]5c5ccccc5)CC4)no3)(CC1)CC2 [Example 155] | ≤ 50 nM | 100 to 500 nM | 90 to 100% | > 40000 nM | – | – | 78.7% | 200 ± 15 mm^3 | – |
| O=C(O)[C@H]1CC[C@H](c2nc(C3(CN[C@@H]4C[C@H]4c4ccccc4)CC3)no2)CC1 [Example 167] | 100 to 500 nM | – | – | – | 78.2% | 231 ± 28 mm^3 | – | – | Cmax ([2]; IV 1 mg/kg, oral 2 mg/kg, route of Cmax not stated, read-out: max concentration Cmax): 5090 ng/mL; clearance ([2]; IV 1 mg/kg, read-out: clearance CL): 11.6 mL/min/kg; half-life ([2]; IV 1 mg/kg, read-out: half-life T1/2 (IV, h) (converted)): 1.4 h; Vd ([2]; IV 1 mg/kg, read-out: volumes of distribution Vdss): 0.4 L/kg; bioavailability ([2]; PO 2 mg/kg vs IV 1 mg/kg, read-out: bioavailability F (%)): 48.1%; AUC(0-t) ([2]; PO 2 mg/kg, read-out: the area under the plasma concentration-time curve AUC0-last PO): 3.51 µM·h; TGI (%) [1, 9]: 81.4%; Tumor volume (mm^3) (Day 34) [1, 9]: 213 ± 37 mm^3 |
